Data published in PubChem BioAssay AID330 (DTP/NCI, 2004).
Several values for one entry are separate records, joined by “and”; a condition that tells them apart may be missing. Identical values can stand only once. Toxic doses and inconclusive results are not listed.

Tested on: P388 leukemia ip, CD2F1 mice, survival T/C
Experiment: NCI In Vivo Anticancer Drug Screen. Data for tumor model P388 Leukemia (intraperitoneal) in CD2F1 (CDF1) mice
Conditions: endpoint: median survival time, higher = longer survival
Method in brief: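 Mice carrying the transplanted tumor received test compound or vehicle. Survival was recorded in each group, and the value is the treated-group measurement divided by that of the vehicle-treated control group.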

[1] = dose: 100.0 mg/kg/injection, schedule: Q01DX001 (ip), vehicle: Klucel (hydroxypropylcellulose) (HPC)
[2] = dose: 200.0 mg/kg/injection, schedule: Q01DX001 (ip), vehicle: Klucel (hydroxypropylcellulose) (HPC)
[3] = dose: 6.25 mg/kg/injection, schedule: Q04DX003 (ip), vehicle: saline
[4] = dose: 12.5 mg/kg/injection, schedule: Q04DX003 (ip), vehicle: saline
[5] = dose: 25.0 mg/kg/injection, schedule: Q04DX003 (ip), vehicle: saline
[6] = dose: 50.0 mg/kg/injection, schedule: Q04DX003 (ip), vehicle: saline
[7] = dose: 100.0 mg/kg/injection, schedule: Q01DX009 (ip), vehicle: saline with Tween-80
[8] = dose: 50.0 mg/kg/injection, schedule: Q01DX005 (ip), vehicle: saline
[9] = dose: 100.0 mg/kg/injection, schedule: Q01DX005 (ip), vehicle: saline
[10] = dose: 6.25 mg/kg/injection, schedule: Q01DX009 (ip), vehicle: Klucel (hydroxypropylcellulose) (HPC)
[11] = dose: 50.0 mg/kg/injection, schedule: Q01DX009 (ip), vehicle: Klucel (hydroxypropylcellulose) (HPC)
[12] = dose: 100.0 mg/kg/injection, schedule: Q01DX009 (ip), vehicle: Klucel (hydroxypropylcellulose) (HPC)
[13] = dose: 200.0 mg/kg/injection, schedule: Q01DX009 (ip), vehicle: Klucel (hydroxypropylcellulose) (HPC)
[14] = dose: 50.0 mg/kg/injection, schedule: Q01DX005 (ip), vehicle: Klucel (hydroxypropylcellulose) (HPC)
[15] = dose: 60.0 mg/kg/injection, schedule: Q01DX005 (ip), vehicle: saline with Tween-80
[16] = dose: 120.0 mg/kg/injection, schedule: Q01DX005 (ip), vehicle: saline with Tween-80
[17] = dose: 240.0 mg/kg/injection, schedule: Q01DX005 (ip), vehicle: saline with Tween-80

## CCOC(=O)CC/C(=C/c1cccc(OC)c1)[N+](=O)[O-]
dose: 50.0 mg/kg/injection, schedule: Q01DX001 (ip), vehicle: Klucel (hydroxypropylcellulose) (HPC)
  T/C: 105 % of control
[1]
  T/C: 107 % of control
[2]
  T/C: 107 % of control

## CC[n+]1ccc2c(C)c3[nH]c4ccc(O)cc4c3c(C)c2c1
dose: 1.56 mg/kg/injection, schedule: Q04DX003 (ip), vehicle: saline
  T/C: 165 % of control
dose: 3.12 mg/kg/injection, schedule: Q04DX003 (ip), vehicle: saline
  T/C: 192 % of control
[3]
  T/C: 171 % of control and 223 % of control
[4]
  T/C: 103 % of control and 90 % of control
[5]
  T/C: 90 % of control
[6]
  T/C: 90 % of control

## COc1nc(=O)n(C2C=CC(=O)O2)cc1F (stereo unspecified)
dose: 20.0 mg/kg/injection, schedule: Q01DX009 (ip), vehicle: saline
  T/C: 158 % of control and 173 % of control
dose: 40.0 mg/kg/injection, schedule: Q01DX009 (ip), vehicle: saline
  T/C: 174 % of control and 196 % of control
dose: 80.0 mg/kg/injection, schedule: Q01DX009 (ip), vehicle: saline
  T/C: 102 % of control

## CSc1nc2cc(Cl)ccc2c2c1C=NCCN2
[4]
  T/C: 97 % of control
[5]
  T/C: 96 % of control
[6]
  T/C: 103 % of control
dose: 50.0 mg/kg/injection, schedule: Q04DX003 (ip), vehicle: suspension in saline
  T/C: 103 % of control

## CC1(c2ccc(Cl)cc2)OC(=O)C(=Cc2ccc([N+](=O)[O-])s2)C(=O)O1 (stereo unspecified)
[7]
  T/C: 122 % of control

## S=P(N1CCCC1)(N1CC1)N1CC1
dose: 2.2 mg/kg/injection, schedule: Q01DX009 (ip), vehicle: saline
  T/C: 111 % of control
dose: 3.3 mg/kg/injection, schedule: Q01DX009 (ip), vehicle: saline
  T/C: 155 % of control
dose: 7.5 mg/kg/injection, schedule: Q01DX009 (ip), vehicle: saline
  T/C: 177 % of control
dose: 11.0 mg/kg/injection, schedule: Q04DX003 (ip), vehicle: saline with Tween-80
  T/C: 104 % of control
dose: 25.0 mg/kg/injection, schedule: Q04DX003 (ip), vehicle: saline with Tween-80
  T/C: 200 % of control
dose: 37.5 mg/kg/injection, schedule: Q04DX003 (ip), vehicle: saline with Tween-80
  T/C: 90 % of control

## CNC(=O)N(C)CP(=O)(O)OC
dose: 50.0 mg/kg/injection, schedule: Q01DX009 (ip), vehicle: saline
  T/C: 100 % of control
dose: 100.0 mg/kg/injection, schedule: Q01DX009 (ip), vehicle: saline
  T/C: 98 % of control
dose: 200.0 mg/kg/injection, schedule: Q01DX009 (ip), vehicle: saline
  T/C: 91 % of control

## COc1cc2c(cc1OC)[C@H]1O[C@H](OC)c3c(ccc4c3OCO4)[C@H]1N(C)CC2
dose: 7.25 mg/kg/injection, schedule: Q01DX005 (ip), vehicle: Klucel (hydroxypropylcellulose) (HPC)
  T/C: 106 % of control
dose: 14.5 mg/kg/injection, schedule: Q01DX005 (ip), vehicle: Klucel (hydroxypropylcellulose) (HPC)
  T/C: 100 % of control
dose: 29.0 mg/kg/injection, schedule: Q01DX005 (ip), vehicle: Klucel (hydroxypropylcellulose) (HPC)
  T/C: 106 % of control
dose: 58.0 mg/kg/injection, schedule: Q01DX005 (ip), vehicle: Klucel (hydroxypropylcellulose) (HPC)
  T/C: 96 % of control

## CCN(CC)CC.[CH-]1CCCCC1.[CH-]1CCCCC1.[CH-]1CCCCC1.[Cl-].[Cl-].[Sn+4]
dose: 3.12 mg/kg/injection, schedule: Q01DX005 (ip), vehicle: saline with Tween-80
  T/C: 107 % of control
dose: 6.25 mg/kg/injection, schedule: Q01DX005 (ip), vehicle: saline with Tween-80
  T/C: 110 % of control

## C[n+]1c(C[n+]2ccccc2)ccc2ccccc21
[8]
  T/C: 105 % of control
[9]
  T/C: 106 % of control

## OCC[CH2][Pb]([c]1ccccc1)([c]1ccccc1)[c]1ccccc1
dose: 0.78 mg/kg/injection, schedule: Q01DX009 (ip), vehicle: Klucel (hydroxypropylcellulose) (HPC)
  T/C: 98 % of control and 105 % of control
dose: 1.56 mg/kg/injection, schedule: Q01DX009 (ip), vehicle: Klucel (hydroxypropylcellulose) (HPC)
  T/C: 100 % of control and 104 % of control and 111 % of control
dose: 3.13 mg/kg/injection, schedule: Q01DX009 (ip), vehicle: Klucel (hydroxypropylcellulose) (HPC)
  T/C: 104 % of control and 110 % of control and 112 % of control
[10]
  T/C: 113 % of control and 118 % of control

## CN(C)c1nc(N)nc(N)n1
[10]
  T/C: 100 % of control
dose: 12.5 mg/kg/injection, schedule: Q01DX009 (ip), vehicle: Klucel (hydroxypropylcellulose) (HPC)
  T/C: 101 % of control and 115 % of control
dose: 25.0 mg/kg/injection, schedule: Q01DX009 (ip), vehicle: Klucel (hydroxypropylcellulose) (HPC)
  T/C: 99 % of control and 106 % of control
[11]
  T/C: 100 % of control and 107 % of control
[12]
  T/C: 100 % of control
[13]
  T/C: 105 % of control

## CCCOC(=O)Nc1ccc2nc(N(C)C)sc2c1
dose: 50.0 mg/kg/injection, schedule: Q01DX009 (ip), vehicle: suspension in saline
  T/C: 99 % of control
dose: 100.0 mg/kg/injection, schedule: Q01DX009 (ip), vehicle: suspension in saline
  T/C: 97 % of control
dose: 200.0 mg/kg/injection, schedule: Q01DX009 (ip), vehicle: suspension in saline
  T/C: 102 % of control

## NC(=O)C(Cc1ccc(O)cc1)NC(=O)OCc1ccccc1 (stereo unspecified)
[14]
  T/C: 97 % of control
dose: 100.0 mg/kg/injection, schedule: Q01DX005 (ip), vehicle: Klucel (hydroxypropylcellulose) (HPC)
  T/C: 92 % of control
dose: 200.0 mg/kg/injection, schedule: Q01DX005 (ip), vehicle: Klucel (hydroxypropylcellulose) (HPC)
  T/C: 97 % of control

## COC1(OC)C=NNc2nncn21
[8]
  T/C: 105 % of control
[9]
  T/C: 107 % of control

## OC1(CC2CO2)CCCc2ccccc21 (stereo unspecified)
[11]
  T/C: 93 % of control
[12]
  T/C: 91 % of control
[13]
  T/C: 93 % of control

## [Cl][Cu][Cl]
dose: 3.13 mg/kg/injection, schedule: Q04DX003 (ip), vehicle: saline
  T/C: 90 % of control
[3]
  T/C: 104 % of control

## COc1ccccc1-n1c(=O)c(N=Nc2ccccc2Cl)c(O)n(-c2ccccc2Cl)c1=S
[1]
  T/C: 101 % of control
[2]
  T/C: 100 % of control
dose: 400.0 mg/kg/injection, schedule: Q01DX001 (ip), vehicle: Klucel (hydroxypropylcellulose) (HPC)
  T/C: 101 % of control

## CCc1ccc(C2=C(Cl)C(=O)C(c3ccccc3)=C(Cl)C2=O)cc1
dose: 12.5 mg/kg/injection, schedule: Q01DX005 (ip), vehicle: Klucel (hydroxypropylcellulose) (HPC)
  T/C: 98 % of control
dose: 25.0 mg/kg/injection, schedule: Q01DX005 (ip), vehicle: Klucel (hydroxypropylcellulose) (HPC)
  T/C: 93 % of control
[14]
  T/C: 93 % of control and 98 % of control

## Cc1cc(=O)n(-c2ccc(S(=O)(=O)N=C(N)N)cc2)c(C)c1C(=O)O
dose: 50.0 mg/kg/injection, schedule: Q01DX005 (ip), vehicle: saline with Tween-80
  T/C: 102 % of control
dose: 100.0 mg/kg/injection, schedule: Q01DX005 (ip), vehicle: saline with Tween-80
  T/C: 106 % of control
dose: 200.0 mg/kg/injection, schedule: Q01DX005 (ip), vehicle: saline with Tween-80
  T/C: 103 % of control

## CCCOc1c(C)cc(C(=O)CCN2CCOCC2)cc1Cl
dose: 50.0 mg/kg/injection, schedule: Q01DX009 (ip), vehicle: saline with Tween-80
  T/C: 113 % of control
[7]
  T/C: 112 % of control
dose: 200.0 mg/kg/injection, schedule: Q01DX009 (ip), vehicle: saline with Tween-80
  T/C: 99 % of control

## Cc1nc2ccccc2nc1C1=C(O)c2ccccc2CC1=O
[15]
  T/C: 95 % of control
[16]
  T/C: 90 % of control
[17]
  T/C: 93 % of control

## CCn1c2ccccc2n2c(=O)cc(-c3ccccc3)c(C#N)c12
[15]
  T/C: 98 % of control
[16]
  T/C: 106 % of control
[17]
  T/C: 97 % of control

## Nc1ccc(NCCC2CCCN3CCCCC23)c2c(=O)c3ccccc3sc12 (stereo unspecified)
dose: 32.5 mg/kg/injection, schedule: Q01DX005 (ip), vehicle: saline with Tween-80
  T/C: 100 % of control
dose: 65.0 mg/kg/injection, schedule: Q01DX005 (ip), vehicle: saline with Tween-80
  T/C: 100 % of control
dose: 80.0 mg/kg/injection, schedule: Q01DX005 (ip), vehicle: saline with Tween-80
  T/C: 95 % of control
dose: 130.0 mg/kg/injection, schedule: Q01DX005 (ip), vehicle: saline with Tween-80
  T/C: 101 % of control
dose: 160.0 mg/kg/injection, schedule: Q01DX005 (ip), vehicle: saline with Tween-80
  T/C: 104 % of control
dose: 260.0 mg/kg/injection, schedule: Q01DX005 (ip), vehicle: saline with Tween-80
  T/C: 109 % of control
